From US20020147136A1, “Compounds for targeting endothelial cells, compositions containing the same and methods for their use” (priority 2000, published 2002)
Each block holds one molecule with its values, some of them ahead of it. Residues, ends and D or L forms follow the SMILES beside them. No end group written: not given here.

How the values were obtained:
HAEC = experiment: Inhibition of TKPPR-bubble binding to HAEC in static culture by competing agents; assay type: cell-based, human; conditions: for ability to block binding of BRU-114 microbubbles to HAEC: up to 200 microM; for half-maximal inhibition of bubble binding / IC50 / Bubbles Bound: 5% TKPPR bubbles; for IC50: read-out: half-maximal inhibition of bubble binding; for inhibition of bubble binding to HAEC: Example 12
Procedure: Vials of the compositions of example 5 and of example 6 may be reconstituted with 5 mL of sterile saline, injected using a 20-guage 1.5 inch needle. Bubbles may be then formed within the vials by shaking by hand vigorously for 30 seconds. 1 to 5 mL of the bubble formulation may be removed from each vial and diluted with 3 volumes of D-PBS (without calcium or magnesium) within 1 hour of use.
Chamber slides containing confluent HAEC may be drained of culture medium, which was immediately replaced with one of the final bubble solutions prepared above. The wells may be slightly overfilled such that the liquid meniscus protrudes slightly above the plastic well-forming scaffold of the slide. Bubble solutions may be only added to alternate wells to minimize liquid cross-talk. The wells may be sealed with a piece of Parafilm and the slide incubated 20 minutes, inverted (according to Klibanov A. L., Advanced drug Delivery Reviews, 37, 1999, 139-157) to allow the bubbles to rise and make contact with the cells, after which the solutions may be poured off. Weakly associated bubbles may be removed by washing each well twice with 0.5 mL of D-PBS, swirling gently each time before pouring off. Additional D-PBS (0.5 mL) may be added to wells after the washes to keep the cells submerged until microscopic evaluation.
Composition I of Example 5 was repeated exactly as described except that 0.5 mg DPPE-GTKPPR was added (instead of 2.5 mg) yielding compositions with 1% DPPE-GTKPPR. Vials of this composition as well as that of composition I ofExample 5 (5% DPPE-GTKPPR) were reconstituted with 5 mL of sterile saline, injected using a 20-guage 1.5 inch needle. Bubbles were then formed within the vials by shaking by hand vigorously for 30 seconds. 1 to 5 mL of the bubble formulation was removed from each vial and diluted with 3 volumes of D-PBS (without calcium or magnesium) within 1 hour of use.
Chamber slides containing confluent HAEC were drained of culture medium, which was immediately replaced with one of the final bubble solutions prepared above. The wells were slightly overfilled such that the liquid meniscus protruded slightly above the plastic well-forming scaffold of the slide. Bubble solutions were only added to alternate wells to minimize liquid cross-talk. The wells were sealed with a piece of Parafilm and the slide was incubated 20 minutes, inverted to allow the bubbles to rise and make contact with the cells, after which the solutions were poured off. Weakly associated bubbles were removed by washing each well twice with 0.5 mL of D-PBS, swirling gently each time pouring off. Additional D-PBS (0.5 mL) was added to wells after the washes to keep the cells submerged until microscopic evaluation.
Assays were performed as described for Example 7 using microbubble compositions containing 2% BRU-114 (Composition I of Example 5) as a % of total phospholipid in the composition.
Compositions were reconstituted and assays were performed as described in Example 7 using microbubble compositions containing 1% BRU-114 (Composition I of Example 5) as a % of total phospholipid in the composition.
Assays were performed as described for Example 7 using microbubble compositions containing 2% BRU-114 (as a % of total phospholipid in the composition).

NP-1/Fc = experiment: Inhibition of 125I-VEGF165 binding to NP-1/Fc
Procedure: The ability of various compositions comprising TKPPR monomers or multimers to inhibit ^125I-VEGF binding to NP-1 was evaluated using NP-1/Fc. Competitive binding assays with microtiter plates coated with NP-1/Fc (R&D sytems) were performed using ^125I-VEGF165 as radioligand (Amersham Pharmacia Biotech Cat. No. IM274, Specific Activity: 1000-2500 Ci/mmol). […] Plates (Nunc MaxiSorp white opaque Microtiter plate [C-bottom, 437796]) were coated by incubating the wells with 75 µl of a solution containing 3 μlg/mL NP-1/Fc in D-PBS/0.1% NaAzide overnight at 4° C. after covering with sealing tape (Dynex, VWR Cat. No. 62402-931). […] All points were derived from triplicate wells, and for each set of replicates in NP-1/Fc-coated wells, a companion set in the absence of the receptor was included. For competitive binding, a series of unlabelled competitor concentrations were prepared in a 250 pM solution of ^1251-VEGF165 in assay buffer Solutions were added to 1.2 ml polypropylene tubes conforming to the microtiter format (Costar Cat. No. 29442-602), and transferred from these tubes to microtiter wells, without further dilution, using a multichannel pipettor. After addition of the appropriate solutions, microtiter plates were incubated at 4° C. for 2 hours. […] The plates were blotted dry and 25 μl deionized water and 100 μl scintillation fluid (Optiphase SuperMix, Wallac) were added to each well. Plates were agitated using a Plate Shaker (Hyperion, Cat. No. 4030-100F) for 3-5 minutes and were then counted using a Microplate Scintillation Counter (Wallac Microbeta Trilux) A set of serially diluted 125I-VEGF165 standard wells ranging from 200 to 0.04 pM were included with each experiment to aid in quantification of the amount of radiolabel bound.

Neuropilin-1/Fc = experiment: Fluorescence polarization binding to NP-1/Fc; conditions: for binding to NP-1/Fc by FP: Oregon Green-labeled ligand
Procedure: The ability of various compositions comprising TKPPR monomers or multimers to bind to NP-1/Fc and KDR-Fc was evaluated using FP. The binding studies of various Oregon Green (OG)-labeled compounds comprising TKPPR monomers or multimers and related compounds with Neuropilin-1/Fc, and KDR-Fc (both from R&D Systems), were carried out at 37° C. in D-PBS buffer (pH 7.4). FP values (mP) for each substrate was measured by titrating the ligand (5-20 nM) with receptor protein using a Jolley Research and Consulting FPM-1 fluorescence Polarization analyzer. In each of these experiments the observed polarization values were plotted against receptor concentration. The mP values for 100% binding of tracer labeled ligand to receptor protein was calculated using the software provided by the vendor.

[1] = competitor 50 microM, 2% BRU-114 bubbles
[2] = competitor 100 microM, 2% BRU-114 bubbles
[3] = competitor 200 microM, 2% BRU-114 bubbles
[4] = competitor 100 ng/ml, 2% BRU-114 bubbles
[5] = competitor 200 ng/ml, 2% BRU-114 bubbles

- ability to block binding of BRU-114 microbubbles to HAEC (HAEC; 2% BRU-114 bubbles): no ability to block
- Bubbles Bound % of control binding (HAEC; [1]): 97%
- Bubbles Bound % of control binding (HAEC; [2]): 71%
- Bubbles Bound % of control binding (HAEC; [3]): 99%
Molecule: CC(O)C1/N=C(/O)C(N)CSSCC(C(=O)O)/N=C(/O)C(CCCNC(=N)N)/N=C(\O)C2CCCN2C(=O)C2CCCN2C(=O)C(CCCCN)/N=C\1O (stereo not drawn) [BRU-306]

- ability to inhibit binding of BRU-114 microbubbles to HAEC (HAEC; 2% BRU-114 bubbles): potently blocked
- half-maximal inhibition of bubble binding (HAEC): about 12.5 ng/mL
- IC50 (HAEC): ~0.3 nM
- inhibition of bubble binding to HAEC (HAEC): potently may inhibit
- Bubbles Bound (HAEC; VEGF added 6.25 ng/ml): 1184 ± 172
- Bubbles Bound (HAEC; VEGF added 12.5 ng/ml): 599 ± 6
- Bubbles Bound (HAEC; VEGF added 25 ng/ml): 342 ± 22
- Bubbles Bound (HAEC; VEGF added 50 ng/ml): 226 ± 39
- Bubbles Bound (HAEC; VEGF added 75 ng/ml): 190 ± 45
- Bubbles Bound (average of duplicate) (HAEC; competitor 25 ng/ml, 2% BRU-114 bubbles): 144
- Bubbles Bound (average of duplicate) (HAEC; [4]): 94
- Bubbles Bound (average of duplicate) (HAEC; [5]): 70
Molecule: VEGF165: vascular endothelial growth factor isoform containing 165 amino acids

- potency at inhibiting BRU-114 microbubble binding relative to TKPPR (BRU-95) (HAEC; 1% BRU-114 bubbles): less potent than TKPPR
- inhibition of TKPPR-bubble binding to HAEC (HAEC; Example 7, compared with free TKPPR): less effectively than free TKPPR
- Bubbles Bound (average of duplicate) (HAEC; competitor 5 microM, 1% BRU-114 bubbles): 1152
- Bubbles Bound (average of duplicate) (HAEC; competitor 10 microM, 1% BRU-114 bubbles): 976
- Bubbles Bound (average of duplicate) (HAEC; competitor 25 microM, 1% BRU-114 bubbles): 1171
- Bubbles Bound (average of duplicate) (HAEC; competitor 50 microM, 1% BRU-114 bubbles): 904
- Bubbles Bound (average of duplicate) (HAEC; competitor 100 microM, 1% BRU-114 bubbles): 556
- fold less potent a binding inhibitor than TKPPR (NP-1/Fc): 5 to 6 fold
- IC50 (NP-1/Fc; 250 pM 125I-VEGF165, 4° C., 2 hours): 280000 nM
Molecule: C[C@@H](O)[C@H](N)C(=O)N[C@@H](CCCCN)C(=O)N1CCC[C@H]1C(=O)N[C@@H](CCCNC(=N)N)C(=O)O [TKPR, L-threonyl-L-lysyl-L-prolyl-L-Arginine, reference compound] (H-TKPR-OH)

Molecule: TKPPR-K(RPPKT)-K[K(RPPKT)TKPPR]-G-Z-OG [BRU-346]
- binding characteristics compared to BRU-326 (Neuropilin-1/Fc): did not exhibit the same binding characteristics
- binding to NP-1/Fc by FP (Neuropilin-1/Fc): negative

- inhibition of 125I-VEGF165 binding to NP-1 Fc (NP-1/Fc; at 1 μM): no inhibition
Molecule: BRU-170: TPATSVRG (negative control) [reference compound]

Molecule: Thr-Lys-Pro-Pro-Arg-Lys(Arg-Pro-Pro-Lys-Thr)-Gly-TTDA-OG [BRU-337]
- binding characteristics compared to BRU-326 (Neuropilin-1/Fc): did not exhibit the same binding characteristics

- binding to NP-1/Fc by FP (Neuropilin-1/Fc): barely detectable
- fold more potent than the monomer (NP-1/Fc): 10 to 14 fold
Molecule: BRU-317: TKPPR dimer labeled with Oregon Green (also: dimer, labeled with Oregon Green)

Molecule: CC(O)C(NC(=O)C(N)CS)C(=O)NC(CCCCN)C(=O)N1CCCC1C(=O)N1CCCC1C(=O)NC(CCCNC(=N)N)C(=O)NC(CS)C(=O)O (stereo not drawn) [BRU-305] (H-CTKPPRC-OH; configuration not given here)
- ability to block binding of BRU-114 microbubbles to HAEC (HAEC; 2% BRU-114 bubbles): no ability to block
- Bubbles Bound % of control binding (HAEC; [1]): 97%
- Bubbles Bound % of control binding (HAEC; [2]): 78%
- Bubbles Bound % of control binding (HAEC; [3]): 88%

- half-maximal inhibition of bubble binding (HAEC): about 450 ng/mL
- IC50 (HAEC): ~1.4 nM
- inhibition of bubble binding to HAEC (HAEC): inhibit potently
- Bubbles Bound (HAEC; KDR/Fc added 125 ng/ml): 1030 ± 12
- Bubbles Bound (HAEC; KDR/Fc added 250 ng/ml): 786 ± 76
- Bubbles Bound (HAEC; KDR/Fc added 500 ng/ml): 342 ± 78
- Bubbles Bound (HAEC; KDR/Fc added 1000 ng/ml): 75 ± 5
- Bubbles Bound (HAEC; KDR/Fc added 2500 ng/ml): 84 ± 3
Molecule: KDR/Fc: soluble human KDR/Fc chimera (R&D Sytems Inc.)

- ability to inhibit binding of BRU-114 microbubbles to HAEC (HAEC; 2% BRU-114 bubbles): little if any ability to inhibit
- Bubbles Bound (average of duplicate) (HAEC; [4]): 878
- Bubbles Bound (average of duplicate) (HAEC; [5]): 849
- Bubbles Bound (average of duplicate) (HAEC; competitor 400 ng/ml, 2% BRU-114 bubbles): 778
- effect on BRU-326 binding to NP-1 (Neuropilin-1/Fc; at up to 250nM): no effect
B1: VEGF121: VEGF isoform of 121 amino acids, lacks the heparin-binding domain (protein)
chain: APMAEGGGQNHHEVVKFMDVYQRSYCHPIETLVDIFQEYPDEIEYIFKPSCVPLMRCGGCCNDEGLECVPTEESNITMQIMRIKPHQGQHIGEMSFLQHNKCECRPKKDRARQEKCDKPRR
